Experimental data published in US20120088800A1, “2-(SUBSTITUTED) (ARYLMETHYL, ARYLOXY and ARYLTHIO))-N-(SUBSTITUTED PYRIDIN-2-YL)-2-(SUBSTITUTED ARYL) COMPOUNDS AS SUBTYPE-SELECTIVE MODULATORS OF SPHINGOSINE-1-PHOSPHATE-3 (S1P3) RECEPTORS” (ALLERGAN, INC., priority 2009, published 2012).
Counter-ions that a name gives are not always drawn.

Tests used:
Format in all cases: cell-based
S1P2 = target: T1, S1P2 (Homo sapiens, UniProt O95136); assay: FLIPR calcium assay, cells expressing S1P2 and a G-protein; conditions: fluo-4 calcium signal compared to sphingosine 1-phosphate
T1 construct: expressed in transfected cells
Source text: (§1) Novel compounds having this general structure were synthesized and tested for sphingosine 1-phosphate receptor (S1P) activity using the FLIPR assay. Cells expressing the receptor of interest (S1P1, S1P2 or S1P3) and a G-protein (Gqi5 or G16) are loaded with fluo-4, a calcium sensitive dye. After removal of excess dye by washing, the cells are placed in the FLIPR TETRA instrument. Baseline fluorescence readings are taken prior to addition the compound to be tested. Agonists will trigger the receptor to interact with the G-protein, leading to an increase in intracellular calcium. The increase in intracellular calcium causes an increase in the fluorescence of the cells, due to the presence of fluo-4. This fluorescence increase is recorded by the FLIPR TETRA. After the calcium transient signal has decreased towards baseline, the standard agonist sphingosine 1-phosphate is added. If the test compound is an antagonist, an initial calcium signal will not be generated and the antagonist will prevent the generation of a calcium signal from sphingosine 1-phosphate. The level of fluorescence is compared to that of sphingosine 1-phosphate, and the EC50 or IC50 of the compound determined by curve fitting.

S1P3 = target: T2, S1P3 (Homo sapiens, UniProt Q99500); assay: FLIPR calcium assay, cells expressing S1P3 and a G-protein; conditions: for EC50: fluo-4 calcium signal compared to sphingosine 1-phosphate, antagonist mode; for FLIPR (% Antagonism) S1P3: value in parentheses below the EC50, antagonism of sphingosine 1-phosphate signal
T2 construct: expressed in transfected cells
Source text: as §1

S1P1 = target: T3, S1P1 (Homo sapiens, UniProt P21453); assay: FLIPR calcium assay, cells expressing S1P1 and a G-protein; conditions: fluo-4 calcium signal compared to sphingosine 1-phosphate
T3 construct: expressed in transfected cells
Source text: as §1

T2 sequence (Q99500 whole entry, species assumed): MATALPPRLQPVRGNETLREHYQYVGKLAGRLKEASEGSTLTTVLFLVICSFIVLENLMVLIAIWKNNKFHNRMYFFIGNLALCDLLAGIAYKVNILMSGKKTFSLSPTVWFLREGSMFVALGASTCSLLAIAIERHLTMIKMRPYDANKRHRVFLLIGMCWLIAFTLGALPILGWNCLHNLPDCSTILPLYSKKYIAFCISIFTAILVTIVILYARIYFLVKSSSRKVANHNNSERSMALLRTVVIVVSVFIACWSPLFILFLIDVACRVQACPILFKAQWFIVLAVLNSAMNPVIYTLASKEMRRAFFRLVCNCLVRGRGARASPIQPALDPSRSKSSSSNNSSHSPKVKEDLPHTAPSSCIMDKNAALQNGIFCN
T1 sequence (O95136 whole entry, species assumed): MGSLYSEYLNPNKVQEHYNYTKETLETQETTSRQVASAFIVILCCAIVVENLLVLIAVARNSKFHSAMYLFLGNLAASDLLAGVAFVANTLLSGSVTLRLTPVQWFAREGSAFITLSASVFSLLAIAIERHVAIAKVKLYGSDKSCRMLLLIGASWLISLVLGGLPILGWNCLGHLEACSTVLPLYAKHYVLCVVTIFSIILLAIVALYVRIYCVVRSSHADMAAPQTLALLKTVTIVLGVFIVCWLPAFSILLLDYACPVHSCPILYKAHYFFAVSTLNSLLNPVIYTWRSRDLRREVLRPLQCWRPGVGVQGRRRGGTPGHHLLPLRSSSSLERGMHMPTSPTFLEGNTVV
T3 sequence (P21453 whole entry, species assumed): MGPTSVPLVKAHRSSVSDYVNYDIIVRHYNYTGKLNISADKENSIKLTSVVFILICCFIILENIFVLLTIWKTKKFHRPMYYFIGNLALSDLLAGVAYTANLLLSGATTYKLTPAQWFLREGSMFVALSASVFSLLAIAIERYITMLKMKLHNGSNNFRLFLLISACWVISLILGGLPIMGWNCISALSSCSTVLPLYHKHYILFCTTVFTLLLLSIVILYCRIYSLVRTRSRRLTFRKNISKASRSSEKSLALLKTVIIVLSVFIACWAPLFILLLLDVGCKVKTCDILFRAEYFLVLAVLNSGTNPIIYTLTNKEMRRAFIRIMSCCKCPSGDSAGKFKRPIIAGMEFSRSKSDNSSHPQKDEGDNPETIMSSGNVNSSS

EC50 (S1P2) [nM]	EC50 (S1P3) [nM]	FLIPR (% Antagonism) S1P3 (S1P3)	EC50 (S1P1) [nM]	SMILES
> 8300	128	(99) %	> 8300	Cc1cc(OC(C(=O)Nc2ccc(Cl)cn2)c2ccc(Cl)cc2)ccc1Cl.Cl (stereo not shown) [Example 1, 2-(4-chloro-3-methylphenoxy)-2-(4-chlorophenyl)-N-(5-chloropyridin-2-yl)acetamide hydrochloride]
> 8300	185	(100) %	> 8300	Cc1ccc(OC(C(=O)Nc2ccc(Br)cn2)c2ccc(Cl)cc2)cc1.Cl (stereo not shown) [Example 2, N-(5-bromopyridin-2-yl)-2-(4-chlorophenyl)-2-(p-tolyloxy)acetamide hydrochloride]
> 8300	166	(98) %	> 8300	COc1ccc(OC(C(=O)Nc2ccc(Cl)cn2)c2ccc(Cl)cc2)cc1.Cl (stereo not shown) [Example 3, 2-(4-chlorophenyl)-N-(5-chloropyridin-2-yl)-2-(4-methoxyphenoxy)acetamide hydrochloride]
> 8300	325	(97) %	> 8300	Cl.O=C(Nc1ccc(F)cn1)C(Oc1ccc(Br)cc1)c1ccc(Cl)cc1 (stereo not shown) [Example 4, 2-(4-bromophenoxy)-2-(4-chlorophenyl)-N-(5-fluoropyridin-2-yl)acetamide hydrochloride]
> 8300	90	(97) %	> 8300	Cl.O=C(Nc1ccc(Br)cn1)C(Oc1ccc(Br)cc1)c1ccc(Cl)cc1 (stereo not shown) [Example 5, 2-(4-bromophenoxy)-N-(5-bromopyridin-2-yl)-2-(4-chlorophenyl)acetamide hydrochloride]
> 8300	103	(97) %	> 8300	Cl.O=C(Nc1ccc(Cl)cn1)C(Oc1ccc(Br)cc1)c1ccc(Cl)cc1 (stereo not shown) [Example 6, 2-(4-bromophenoxy)-2-(4-chlorophenyl)-N-(5-chloropyridin-2-yl)acetamide hydrochloride]
> 8300	316	(97) %	> 8300	Cl.O=C(Nc1ccc(F)cn1)C(Oc1ccc(Cl)cc1)c1ccc(Cl)cc1 (stereo not shown) [Example 7, 2-(4-chlorophenoxy)-2-(4-chlorophenyl)-N-(5-fluoropyridin-2-yl)acetamide hydrochloride]
> 8300	15	(97) %	> 8300	Cl.O=C(Nc1ccc(Br)cn1)C(Oc1ccc(Cl)cc1)c1ccc(Cl)cc1 (stereo not shown) [Example 8, N-(5-bromopyridin-2-yl)-2-(4-chlorophenoxy)-2-(4-chlorophenyl)acetamide hydrochloride]
> 8300	27	(97) %	> 8300	Cl.O=C(Nc1ccc(Cl)cn1)C(Oc1ccc(Cl)cc1)c1ccc(Cl)cc1 (stereo not shown) [Example 9, 2-(4-chlorophenoxy)-2-(4-chlorophenyl)-N-(5-chloropyridin-2-yl)acetamide hydrochloride]
> 8300	256	(100) %	> 8300	O=C(Nc1ccc(Br)cn1)C(Sc1ccccc1)c1ccccc1 (stereo not shown) [Example 10, N-(5-bromopyridin-2-yl)-2-phenyl-2-(phenylthio)acetamide hydrochloride]
> 8300	361	(100) %	> 8300	COc1ccc(SC(C(=O)Nc2ccc(Br)cn2)c2ccc(Cl)cc2)cc1.Cl (stereo not shown) [Example 11, N-(5-bromopyridin-2-yl)-2-(4-chlorophenyl)-2-(4-methoxyphenylthio)acetamide hydrochloride]
> 8300	376	(99) %	> 8300	COc1ccc(SC(C(=O)Nc2ccc(Cl)cn2)c2ccc(Cl)cc2)cc1 (stereo not shown) [Example 12, 2-(4-chlorophenyl)-N-(5-chloropyridin-2-yl)-2-(4-methoxyphenylthio)acetamide hydrochloride]
> 8300	198	(99) %	> 8300	O=C(Nc1ccc(Cl)cn1)C(Sc1ccc(F)cc1)c1ccc(Cl)cc1 (stereo not shown) [Example 13, 2-(4-chlorophenyl)-N-(5-chloropyridin-2-yl)-2-(4-fluorophenylthio)acetamide hydrochloride]
> 8300	127	(99) %	> 8300	O=C(Nc1ccc(Br)cn1)C(Sc1ccc(F)cc1)c1ccc(Cl)cc1 (stereo not shown) [Example 14, N-(5-bromopyridin-2-yl)-2-(4-chlorophenyl)-2-(4-fluorophenylthio)acetamide hydrochloride]
> 8300	240	(98) %	> 8300	Cc1ccc(SC(C(=O)Nc2ccc(Cl)cn2)c2ccc(Cl)cc2)cc1C (stereo not shown) [Example 15, 2-(4-chlorophenyl)-N-(5-chloropyridin-2-yl)-2-(3,4-dimethylphenylthio)acetamide hydrochloride]
> 8300	256	(100) %	> 8300	Cc1ccc(SC(C(=O)Nc2ccc(Br)cn2)c2ccc(Cl)cc2)cc1 (stereo not shown) [Example 16, N-(5-bromopyridin-2-yl)-2-(4-chlorophenyl)-2-(p-tolylthio)acetamide hydrochloride]
> 8300	322	(99) %	> 8300	Cc1ccc(SC(C(=O)Nc2ccc(Cl)cn2)c2ccc(Cl)cc2)cc1 (stereo not shown) [Example 17, 2-(4-chlorophenyl)-N-(5-chloropyridin-2-yl)-2-(p-tolylthio)acetamide hydrochloride]
> 8300	133	(97) %	> 8300	O=C(Nc1ccc(Br)cn1)C(Sc1ccc(Cl)c(Cl)c1)c1ccccc1 (stereo not shown) [Example 18, N-(5-bromopyridin-2-yl)-2-(3,4-dichlorophenylthio)-2-phenylacetamide]
> 8300	106	(97) %	> 8300	O=C(Nc1ccc(Cl)cn1)C(Sc1ccc(Cl)c(Cl)c1)c1ccccc1 (stereo not shown) [Example 19, N-(5-chloropyridin-2-yl)-2-(3,4-dichlorophenylthio)-2-phenylacetamide]
> 8300	166	(97) %	> 8300	O=C(Nc1ccc(Br)cn1)C(Sc1cccc(Cl)c1)c1ccccc1 (stereo not shown) [Example 20, N-(5-bromopyridin-2-yl)-2-(3-chlorophenylthio)-2-phenylacetamide hydrochloride]
> 8300	208	(97) %	> 8300	O=C(Nc1ccc(Cl)cn1)C(Sc1cccc(Cl)c1)c1ccccc1 (stereo not shown) [Example 21, 2-(3-chlorophenylthio)-N-(5-chloropyridin-2-yl)-2-phenylacetamide hydrochloride]
> 8300	104	(97) %	> 8300	O=C(Nc1ccc(Br)cn1)C(Sc1ccc(Cl)cc1)c1ccc(Cl)cc1 (stereo not shown) [Example 22, N-(5-bromopyridin-2-yl)-2-(4-chlorophenyl)-2-(4-chlorophenylthio)acetamide hydrochloride]
> 8300	173	(97) %	> 8300	O=C(Nc1ccc(Cl)cn1)C(Sc1ccc(Cl)cc1)c1ccc(Cl)cc1 (stereo not shown) [Example 23, 2-(4-chlorophenyl)-2-(4-chlorophenylthio)-N-(5-chloropyridin-2-yl)acetamide hydrochloride]
> 8300	230	(99) %	> 8300	O=C(Nc1ccc(Cl)cn1)C(Sc1ccc(Br)cc1)c1ccccc1 (stereo not shown) [Example 24, 2-(4-bromophenylthio)-N-(5-chloropyridin-2-yl)-2-phenylacetamide]
> 8300	286	(99) %	> 8300	O=C(Nc1ccc(Br)cn1)C(Sc1ccc(Br)cc1)c1ccccc1 (stereo not shown) [Example 25, 2-(4-bromophenylthio)-N-(5-bromopyridin-2-yl)-2-phenylacetamide]
> 8300	166	(102) %	> 8300	O=C(Nc1ccc(Cl)cn1)C(Sc1ccc(Cl)cc1)c1ccc(F)cc1 (stereo not shown) [Example 26, 2-(4-chlorophenylthio)-N-(5-chloropyridin-2-yl)-2-(4-fluorophenyl)acetamide]
> 8300	160	(101) %	> 8300	O=C(Nc1ccc(Cl)cn1)C(Sc1ccc(Cl)cc1)c1ccccc1 (stereo not shown) [Example 27, 2-(4-chlorophenylthio)-N-(5-chloropyridin-2-yl)-2-phenylacetamide]
> 8300	310	(101) %	> 8300	O=C(Nc1ccc(I)cn1)C(Sc1ccccc1)c1ccccc1 (stereo not shown) [Example 28, N-(5-iodopyridin-2-yl)-2-phenyl-2-(phenylthio)acetamide]
